Laboratory results taken from patent US10456400B2, “Aza-ellipticine analogs, methods of synthesis and methods of treatment” (MUSC FOUNDATION FOR RESEARCH DEVELOPMENT, priority 2014, dated 2019).
Where two headings read alike, the source gives them in different places.

How the values were obtained:
[1] = system: Human mammary cancer MCF-7 cells; test: Cytotoxicity in MCF-7 cells (72 h treatment, Hoechst 33342 staining, IN Cell Analyzer imaging); format: cell-based
Protocol: (§1) Human mammary cancer MCF-7 cells were maintained under standard conditions using Dulbecco's Modified Eagle Medium Nutrient Mixture F12 (DMEM-F12, GIBCO #12400-024) accompanied by 10% fetal calf serum (FCS, Atlanta Biologicals #S 11550). Cells were cultured to 80% confluency before being lifted with 0.05% Trypsin/EDTA (GIBCO #1404912) for 2 minutes, spun and resuspended in new media.
(§2) MCF7 cells were seeded at a density of 10,000 cells per well in 96 well plates (BD Falcon #353220). Cells were grown for 24 h, washed in phosphate-buffered saline (PBS, Life Technologies #14080-055), media was then replaced with DMEM-F12 at 5% FCS. At this time Ellipticine, including Aza-Ellipticine compounds, were added from a treatment plate (3 μL per condition) for a total volume of 150 μL (final concentrations of 0.1, 1, 3, 10 μM) and were incubated under standard conditions for an additional 72 h.
(§3) After 72 h of treatment with drugs, cells were fixed by adding 50 μL of 10% Buffered Formalin Phosphate and stained with 2 μM Hoechst 33342 (AnaSpec #83218) stock (20000×) to media for 1 h. Images were then captured with the IN Cell Analyzer 2000 (GE Healthcare UK Ltd., Buckinghamshire, UK).

[2] = Ramkumar and Nagarajan, 2014; cited from earlier work
[3] = Cytotoxicity in MCF-7 cells (72 h treatment, Hoechst 33342 staining, IN Cell Analyzer imaging); format: cell-based, Human; conditions: human
Protocol: as §1, §2, §3

| SMILES | EC50 at 72 h [3] | other results |
| --- | --- | --- |
| Cc1c2ccncc2c(C)c2c1[nH]c1ccc(O)cc12 [9-Hydroxy ellipticine, reference compound] |  | EC50 ([1]; MCF-7 cells, 72 h treatment, 5% FCS, concentrations 0.1, 1, 3, 10 μM): 0.9 µM; potency compared with parent ellipticine [2]: forty times more potent than its parent |
| c1ccc2c(c1)[nH]c1nc3cnccc3cc12 [Example 2, 10H-indolo[2,3-b][1,7]naphthyridine] | 6 µM |  |
| COc1ccc2[nH]c3nc4cccnc4c(C)c3c2c1 [Example 7, 9-methoxy-11-methyl-6H-indolo[2,3-b][1,5]naphthyridine] | 14 µM |  |
| CCCn1c2ccc(OC)cc2c2cc3ncccc3nc21 [Example 8, 9-methoxy-6-propyl-6H-indolo[2,3-b][1,5]naphthyridine] | 13.3 µM |  |
| COc1ccc2[nH]c3nc4cccnc4cc3c2c1 [Example 12, 9-methoxy-6H-indolo[2,3-b][1,5]naphthyridine] | 0.8 µM |  |
| COc1ccc2[nH]c3nc4cnccc4cc3c2c1 [Example 13, 7-methoxy-10H-indolo[2,3-b][1,7]naphthyridine] | 17 µM |  |
| Oc1ccc2[nH]c3nc4cccnc4cc3c2c1 [Example 14, 6H-indolo[2,3-b][1,5]naphthyridin-9-ol] | 5 µM |  |
| COc1cccc2c1[nH]c1nc3cccnc3cc12 [Example 15, 7-methoxy-6H-indolo[2,3-b][1,5]naphthyridine] |  | Cytotoxicity, EC50 (result in words) [1]: No effect |
| Cc1ccc2[nH]c3nc4cccnc4cc3c2c1 [Example 17, 9-methyl-6H-indolo[2,3-b][1,5]naphthyridine] | 0.9 µM |  |
| CCCCc1c2ncccc2nc2[nH]c3ccc(OC)cc3c12 [Example 18, 11-butyl-9-methoxy-6H-indolo[2,3-b][1,5]naphthyridine] | 1 µM |  |
| CC(=O)Oc1ccc2c(c1)c1cc3ncccc3nc1n2C(C)=O [Example 19, 6-acetyl-6H-indolo[2,3-b][1,5]naphthyridin-9-yl acetate] | 1 µM |  |
| Cc1c2ccncc2c(C)c2c1[nH]c1ccccc12 [ellipticine] |  | EC50 at 72 h ([3]; MCF-7 cells, 72 h treatment, 5% FCS, concentrations 0.1, 1, 3, 10 μM, read-out: Cytotoxicity, EC50): 1 µM |
